{
  "source": "patent EP3958980B1",
  "about": "“TARGETED NOVEL TRIAZOLOTHIADIAZINE DERIVATIVES FOR THE TREATMENT OF LUNG CANCER” (Anadolu Universitesi, priority 2020, dated 2021)",
  "molecular_target": "T1, COX-2 (Homo sapiens, UniProt P35354)",
  "T1 construct": "endogenous in cells; host or cells: A549",
  "T1 sequence (P35354 18-604)": "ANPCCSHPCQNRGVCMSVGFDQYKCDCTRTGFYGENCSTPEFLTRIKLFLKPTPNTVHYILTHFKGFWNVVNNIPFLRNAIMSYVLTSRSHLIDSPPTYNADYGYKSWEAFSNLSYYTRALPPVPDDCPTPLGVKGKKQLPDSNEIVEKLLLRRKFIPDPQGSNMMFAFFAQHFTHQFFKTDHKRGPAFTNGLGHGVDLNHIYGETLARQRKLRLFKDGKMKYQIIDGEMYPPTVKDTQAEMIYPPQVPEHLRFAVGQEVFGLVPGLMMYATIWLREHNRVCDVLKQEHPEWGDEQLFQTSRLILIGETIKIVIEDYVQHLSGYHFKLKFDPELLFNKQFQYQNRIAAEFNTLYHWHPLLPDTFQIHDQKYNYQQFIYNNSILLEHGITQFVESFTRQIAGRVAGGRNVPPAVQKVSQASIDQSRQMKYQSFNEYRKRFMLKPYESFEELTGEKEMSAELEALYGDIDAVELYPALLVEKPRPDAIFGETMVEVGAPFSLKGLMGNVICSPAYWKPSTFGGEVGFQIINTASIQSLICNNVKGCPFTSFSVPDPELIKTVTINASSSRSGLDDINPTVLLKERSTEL",
  "assay": "COX activity assay (colorimetric kit) on lysates of treated A549 cells, COX-2",
  "type": "cell-based",
  "conditions": "24 hours incubation, IC50 concentrations",
  "experimental": "The intracellular COX, Akt and ROCK inhibitory effects of the active compounds determined with the MTT assay, were measured with the colorimetric assay according to the manufacturer's recommendations.\nCOX activity was carried out using Cayman COX activity assay kit in compliance with the manufacturer's recommendations. Briefly, 150 µL of each sample was kept in boiling water for 5 minutes and centrifuged at 8000 × g for 1 minute and it was used to obtain background values. […] 110 µL assay solution, 10 µL hemin and 40 µL sample, 10 µL DuP-697 or SC-560 was added to the inhibitor wells (DuP-697 inhibits COX-2 activity; while SC-560 inhibits COX-1 activity). The plate was shaked for a few seconds and it was left at 25 °C for 5 minutes. 20 µL colorimetric substrate was added to all wells. Moreover, a reaction was started by adding 20 µL arachidonic acid solution and the plate was shaked for a few seconds and it was left at 25 °C for 5 minutes. The absorbance values were read at 540 nm.",
  "note": "Values joined by “and” are separate entries in the source; they are usually repeats but may differ in a detail not shown here. Identical values can stand only once.",
  "data": [
    {"smiles": "N.N.[Cl][Pt][Cl]", "note": "[Cisplatin, reference compound]", "values": [
      {"measurement": "COX-2 Inhibition%", "result": 43.46, "unit": "%"},
      {"measurement": "COX-2 activity (U/mL)", "result": 2.38, "unit": "U/mL"}
    ]},
    {"smiles": "CS(=O)(=O)c1ccc(C2=Nn3c(CCc4ccc5c(c4)OCO5)nnc3SC2)cc1", "note": "[Compound 9]", "values": [
      {"measurement": "COX-2 Inhibition%", "result": 32.66, "unit": "%"},
      {"measurement": "COX-2 activity (U/mL)", "result": 3.60, "unit": "U/mL"}
    ]},
    {"smiles": "FC(F)(F)c1ccc(C2=Nn3c(CCc4ccc5c(c4)OCO5)nnc3SC2)cc1", "note": "[Compound 11, 3-[2-(1,3-Benzodioxole-5-yl)ethyl]-6-(4-trifluoromethylphenyl)-7H-[1,2,4]triazolo [3,4-b][1,3,4]thiadiazine]", "values": [
      {"measurement": "COX-2 activity (U/mL)", "result": 1.46, "unit": "U/mL"}
    ]},
    {"smiles": "Fc1cccc(C2=Nn3c(CCc4ccc5c(c4)OCO5)nnc3SC2)c1", "note": "[Compound 12, 3-[2-(1,3-Benzodioxole-5-yl)ethyl]-6-(3-fluorophenyl)-7H-[1,2,4]triazolo [3,4-b] [1,3,4]thiadiazine]", "values": [
      {"measurement": "COX-2 Inhibition%", "result": 53.52, "unit": "%"},
      {"measurement": "COX-2 activity (U/mL)", "result": 1.95, "unit": "U/mL"}
    ]},
    {"smiles": "c1ccc(-c2ccc(C3=Nn4c(CCc5ccc6c(c5)OCO6)nnc4SC3)cc2)cc1", "note": "[Compound 14, 3-[2-(1,3-Benzodioxole-5-yl)ethyl]-6-(biphenyl-4-yl)-7H-[1,2,4]triazolo[3,4-b] [1,3,4]thiadiazine]", "values": [
      {"measurement": "COX-2 Inhibition%", "result": "15.17% and 15.70%"},
      {"measurement": "COX-2 activity (U/mL)", "result": 3.56, "unit": "U/mL"}
    ]}
  ]
}
